# Test results taken from ChEMBL document CHEMBL1201862, “PubChem BioAssay data set” (2004).
#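 Grown in 96-well plates, cells were treated for 48 hours with each compound at five concentrations. Insufficient inhibition: endpoint recorded as highest concentration tested. Here, GI50 denotes the concentration required for 50% inhibition of growth.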 Active and inactive are the calls of the source. Cut-off read from the data, not from the text of the source: active = GI50 up to about 1.1 µM and inactive = higher.
# Experiments:
# Assay in all cases: inhibition of tumour cell growth, NCI panel, 48 h
# 786-0 = system: 786-0
# UACC-257 = system: UACC-257
# OVCAR-4 = system: OVCAR-4
# MDA-MB-435 = system: MDA-MB-435
# HT-29 = system: HT-29
# T47D = system: T47D
# SK-MEL-2 = system: SK-MEL-2
# HL-60 = system: HL-60
# SF-539 = system: SF-539
# SR = system: SR
# SK-MEL-5 = system: SK-MEL-5
# HCT-116 = system: HCT-116
# BT-549 = system: BT-549
# A549 = system: A549
# MCF7 = system: MCF7
# MOLT-4 = system: MOLT-4
# A498 = system: A498
# UO-31 = system: UO-31
# SW-620 = system: SW-620
# DU-145 = system: DU-145
# COLO 205 = system: COLO 205
# OVCAR-5 = system: OVCAR-5
# NCI-H226 = system: NCI-H226
# SF-295 = system: SF-295
# OVCAR-8 = system: OVCAR-8
# IGROV-1 = system: IGROV-1
# MDA-MB-231 = system: MDA-MB-231
# EKVX = system: EKVX
# RPMI-8226 = system: RPMI-8226
# M14 = system: M14
# U-251 = system: U-251
# SF-268 = system: SF-268
# CAKI-1 = system: CAKI-1
# CCRF-CEM = system: CCRF-CEM
# HOP-92 = system: HOP-92
# NCI-H23 = system: NCI-H23
# NCI-H522 = system: NCI-H522
# MDA-N = system: MDA-N
# OVCAR-3 = system: OVCAR-3
# RXF 393 = system: RXF 393
# SK-OV-3 = system: SK-OV-3
# SN12C = system: SN12C
# NCI/ADR-RES = system: NCI/ADR-RES
# KM12 = system: KM12
# NCI-H460 = system: NCI-H460
# SK-MEL-28 = system: SK-MEL-28
# HCT-15 = system: HCT-15
# LOX IMVI = system: LOX IMVI
# SNB-19 = system: SNB-19
# HCC 2998 = system: HCC 2998
# Hs-578T = system: Hs-578T
# HOP-62 = system: HOP-62
# UACC-62 = system: UACC-62
# Malme-3M = system: Malme-3M
# ACHN = system: ACHN
# TK-10 = system: TK-10
# K562 = system: K562
# SNB-75 = system: SNB-75
smiles,measurement,setting,value
CCOC(=O)C(C(=O)OCC)C(=S)NC1OC(COC(C)=O)C(OC(C)=O)C(OC(C)=O)C1OC(C)=O (configuration not stated),GI50,786-0,> 100 µM (inactive)
same,GI50,UACC-257,> 100 µM (inactive)
same,GI50,OVCAR-4,> 100 µM (inactive)
same,GI50,MDA-MB-435,> 100 µM (inactive)
same,GI50,HT-29,> 100 µM (inactive)
same,GI50,T47D,> 100 µM (inactive)
same,GI50,SK-MEL-2,> 100 µM (inactive)
same,GI50,HL-60,> 100 µM (inactive)
same,GI50,SF-539,> 100 µM (inactive)
same,GI50,SR,> 100 µM (inactive)
same,GI50,SK-MEL-5,> 100 µM (inactive)
same,GI50,HCT-116,> 100 µM (inactive)
same,GI50,BT-549,> 100 µM (inactive)
same,GI50,A549,> 100 µM (inactive)
same,GI50,MCF7,> 100 µM (inactive)
same,GI50,MOLT-4,> 100 µM (inactive)
same,GI50,A498,> 100 µM (inactive)
same,GI50,UO-31,> 100 µM (inactive)
same,GI50,SW-620,> 100 µM (inactive)
same,GI50,DU-145,> 100 µM (inactive)
same,GI50,COLO 205,> 100 µM (inactive)
same,GI50,OVCAR-5,> 100 µM (inactive)
same,GI50,NCI-H226,> 100 µM (inactive)
same,GI50,SF-295,> 100 µM (inactive)
same,GI50,OVCAR-8,> 100 µM (inactive)
same,GI50,IGROV-1,> 100 µM (inactive)
same,GI50,MDA-MB-231,> 100 µM (inactive)
same,GI50,EKVX,> 100 µM (inactive)
same,GI50,RPMI-8226,> 100 µM (inactive)
same,GI50,M14,> 100 µM (inactive)
same,GI50,U-251,> 100 µM (inactive)
same,GI50,SF-268,> 100 µM (inactive)
same,GI50,CAKI-1,> 100 µM (inactive)
same,GI50,CCRF-CEM,> 100 µM (inactive)
same,GI50,HOP-92,> 100 µM (inactive)
same,GI50,NCI-H23,> 100 µM (inactive)
same,GI50,NCI-H522,> 100 µM (inactive)
same,GI50,MDA-N,> 100 µM (inactive)
same,GI50,OVCAR-3,> 100 µM (inactive)
same,GI50,RXF 393,> 100 µM (inactive)
same,GI50,SK-OV-3,> 100 µM (inactive)
same,GI50,SN12C,> 100 µM (inactive)
same,GI50,NCI/ADR-RES,> 100 µM (inactive)
same,GI50,KM12,> 100 µM (inactive)
same,GI50,NCI-H460,> 100 µM (inactive)
same,GI50,SK-MEL-28,> 100 µM (inactive)
same,GI50,HCT-15,> 100 µM
same,GI50,LOX IMVI,> 100 µM (inactive)
same,GI50,SNB-19,> 100 µM (inactive)
same,GI50,HCC 2998,> 100 µM (inactive)
same,GI50,Hs-578T,> 100 µM (inactive)
same,GI50,HOP-62,> 100 µM (inactive)
same,GI50,UACC-62,> 100 µM (inactive)
same,GI50,Malme-3M,> 100 µM (inactive)
C=CCN1C(=O)N/C(=C\c2ccc(Cl)cc2)C1=O,GI50,786-0,> 100 µM (inactive)
same,GI50,UACC-257,> 100 µM (inactive)
same,GI50,OVCAR-4,> 100 µM (inactive)
same,GI50,MDA-MB-435,> 100 µM (inactive)
same,GI50,HT-29,> 100 µM (inactive)
same,GI50,ACHN,> 100 µM (inactive)
same,GI50,T47D,> 100 µM (inactive)
same,GI50,HL-60,> 100 µM (inactive)
same,GI50,SF-539,> 100 µM (inactive)
same,GI50,TK-10,> 100 µM (inactive)
same,GI50,SK-MEL-5,> 100 µM (inactive)
same,GI50,HCT-116,> 100 µM (inactive)
same,GI50,BT-549,> 100 µM (inactive)
same,GI50,A549,83.9 µM (inactive)
same,GI50,MCF7,> 100 µM (inactive)
same,GI50,MOLT-4,> 100 µM (inactive)
same,GI50,A498,22.6 µM (inactive)
same,GI50,SW-620,> 100 µM (inactive)
same,GI50,DU-145,> 100 µM (inactive)
same,GI50,COLO 205,> 100 µM (inactive)
same,GI50,OVCAR-5,> 100 µM (inactive)
same,GI50,NCI-H226,> 100 µM (inactive)
same,GI50,SF-295,> 100 µM (inactive)
same,GI50,OVCAR-8,> 100 µM (inactive)
same,GI50,IGROV-1,> 100 µM (inactive)
same,GI50,MDA-MB-231,> 100 µM (inactive)
same,GI50,EKVX,93.8 µM (inactive)
same,GI50,RPMI-8226,> 100 µM (inactive)
same,GI50,M14,> 100 µM (inactive)
same,GI50,U-251,> 100 µM (inactive)
same,GI50,SF-268,> 100 µM (inactive)
same,GI50,CAKI-1,> 100 µM (inactive)
same,GI50,CCRF-CEM,> 100 µM (inactive)
same,GI50,HOP-92,> 100 µM (inactive)
same,GI50,NCI-H23,> 100 µM (inactive)
same,GI50,NCI-H522,87.7 µM (inactive)
same,GI50,MDA-N,> 100 µM (inactive)
same,GI50,OVCAR-3,> 100 µM (inactive)
same,GI50,RXF 393,> 100 µM (inactive)
same,GI50,SK-OV-3,> 100 µM (inactive)
same,GI50,K562,> 100 µM (inactive)
same,GI50,SN12C,> 100 µM (inactive)
same,GI50,NCI/ADR-RES,> 100 µM (inactive)
same,GI50,KM12,> 100 µM (inactive)
same,GI50,NCI-H460,> 100 µM (inactive)
same,GI50,SK-MEL-28,> 100 µM (inactive)
same,GI50,HCT-15,> 100 µM
same,GI50,LOX IMVI,> 100 µM (inactive)
same,GI50,SNB-19,> 100 µM (inactive)
same,GI50,Hs-578T,> 100 µM (inactive)
same,GI50,SNB-75,> 100 µM (inactive)
same,GI50,HOP-62,> 100 µM (inactive)
same,GI50,UACC-62,97.7 µM (inactive)
same,GI50,Malme-3M,> 100 µM (inactive)
Cc1ccc2c(O)cc(-c3ccc(F)cc3)nc2n1,GI50,UACC-257,34.1 µM (inactive)
same,GI50,OVCAR-4,44.5 µM (inactive)
same,GI50,HT-29,30.1 µM (inactive)
same,GI50,ACHN,42.6 µM (inactive)
same,GI50,T47D,41.9 µM (inactive)
same,GI50,SK-MEL-2,45.7 µM (inactive)
same,GI50,HL-60,14.1 µM (inactive)
same,GI50,SF-539,42.5 µM (inactive)
same,GI50,TK-10,46.6 µM (inactive)
same,GI50,SR,7.4 µM (inactive)
same,GI50,BT-549,86.3 µM (inactive)
same,GI50,A549,61.7 µM (inactive)
same,GI50,MCF7,26.4 µM (inactive)
same,GI50,MOLT-4,26.8 µM (inactive)
same,GI50,A498,25.1 µM (inactive)
same,GI50,UO-31,59.2 µM (inactive)
same,GI50,SW-620,28.6 µM (inactive)
same,GI50,DU-145,81.7 µM (inactive)
same,GI50,COLO 205,17.2 µM (inactive)
same,GI50,OVCAR-5,70.1 µM (inactive)
same,GI50,NCI-H226,37.1 µM (inactive)
same,GI50,OVCAR-8,51.1 µM (inactive)
same,GI50,IGROV-1,25.7 µM (inactive)
same,GI50,MDA-MB-231,63 µM (inactive)
same,GI50,EKVX,28.7 µM (inactive)
same,GI50,RPMI-8226,24.9 µM (inactive)
same,GI50,M14,47.6 µM (inactive)
same,GI50,SF-268,52.7 µM (inactive)
same,GI50,CAKI-1,42 µM (inactive)
same,GI50,CCRF-CEM,32.1 µM (inactive)
same,GI50,HOP-92,19.7 µM (inactive)
same,GI50,NCI-H23,41.3 µM (inactive)
same,GI50,NCI-H522,24.9 µM (inactive)
same,GI50,MDA-N,12.1 µM (inactive)
same,GI50,SK-OV-3,40.2 µM (inactive)
same,GI50,K562,22 µM (inactive)
same,GI50,SN12C,52 µM (inactive)
same,GI50,NCI/ADR-RES,25.7 µM (inactive)
same,GI50,KM12,22.4 µM (inactive)
same,GI50,SK-MEL-28,49 µM (inactive)
same,GI50,HCT-15,18.5 µM
same,GI50,LOX IMVI,30.1 µM (inactive)
same,GI50,SNB-19,65.9 µM (inactive)
same,GI50,HCC 2998,44 µM (inactive)
same,GI50,Hs-578T,26.5 µM (inactive)
same,GI50,SNB-75,14.1 µM (inactive)
same,GI50,HOP-62,48.8 µM (inactive)
same,GI50,UACC-62,24.1 µM (inactive)
same,GI50,Malme-3M,32.4 µM (inactive)
